Results from PMC6934184, “Selective DNA-PKcs inhibition extends the therapeutic index of localized radiotherapy and chemotherapy” (The Journal of Clinical Investigation, 2019).

Target: T1, CSNK1G3 (CK1 gamma 3) (Homo sapiens, UniProt Q9Y6M4)
T1 construct: purchased Thermo Fisher Scientific (Life Technologies) SelectScreen
Experiment: SelectScreen Z'LYTE
Type: biochemical
Outline: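 SelectScreen broad panel; activity (Z'LYTE, Adapta) plus binding formats. ATP: Km app for CSF1R Z'LYTE; 10 for CAMK1 Adapta. Readout = % per kinase.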

T1 sequence (Q9Y6M4 whole entry): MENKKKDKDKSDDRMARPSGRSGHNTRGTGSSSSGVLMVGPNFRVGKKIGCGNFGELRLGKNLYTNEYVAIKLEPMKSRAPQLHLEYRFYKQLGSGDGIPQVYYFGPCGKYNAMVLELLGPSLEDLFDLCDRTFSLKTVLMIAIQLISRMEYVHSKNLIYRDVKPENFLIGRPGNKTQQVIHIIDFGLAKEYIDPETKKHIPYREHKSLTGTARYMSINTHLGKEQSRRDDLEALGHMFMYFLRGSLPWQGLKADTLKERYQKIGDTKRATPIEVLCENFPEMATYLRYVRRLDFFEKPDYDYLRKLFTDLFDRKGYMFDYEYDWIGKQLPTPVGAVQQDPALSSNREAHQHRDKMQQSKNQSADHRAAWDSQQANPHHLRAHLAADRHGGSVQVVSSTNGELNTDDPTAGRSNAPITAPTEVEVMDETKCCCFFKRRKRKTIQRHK

SMILES: CN(C(=O)CN1CCOCC1)c1ccc2sc3c(-c4cccc5c(=O)cc(N6CC7CCC(C6)O7)oc45)cccc3c2c1 [NU5455]
- inhibition at 1 µM: 4.2%
